The results in this text go back to patent publication US9617283B2, “Bicyclic heterocycle compounds and their uses in therapy” (ASTEX THERAPEUTICS LIMITED, priority 2012, dated 2017).

Assay [1] has as its system EVSA-T (human breast carcinoma). Description: Anti-proliferative activity, Alamar Blue assay, EVSA-T. It is filed as cell-based.
Description: Anti-Proliferative Activity
The method is based on the ability of viable cells to reduce resazurin to its fluorescent product resorufin. For each proliferation assay cells are plated onto 96 well plates and allowed to recover for 16 hours prior to the addition of inhibitor compounds (in 0.1% DMSO v/v) for a further 72 hours. […] The anti-proliferative activities of compounds of the invention can be determined by measuring the ability of the compounds to inhibit growth in 3 cancer cell lines: • EVSA-T (human breast carcinoma) DSMZ cat. no.
The target in assay [2] is T1, BIR3 domain of human XIAP (residues 252-350) (Homo sapiens, UniProt P98170).
T1 construct: BIR3 domain of human XIAP (residues 252-350); His-tag (cleaved yes); made in house; host or cells: Escherichia coli
Description: XIAP in vitro competitive displacement binding assay (fluorescence polarization). The conditions noted are these: 1 h, percent inhibition (PI) at 0.04 μM; read-out: Xiap IC50 or PI μM. (In general: Fluorescence polarisation rises when a labelled molecule tumbles more slowly, as on binding a larger partner.)

[3] abbreviates: Homo sapiens, EVSA-T, 72 h, EVSA-T cell line, 72 hours, Alamar Blue; read-out: EVSA-T prolif.
[4] abbreviates: Homo sapiens, EVSA-T; read-out: EC50 in EVSA-T cell line assays.
The mark [5] stands for this setting: EVSA-T cell line, 72 hours, Alamar Blue; dihydrochloride; read-out: EVSA-T prolif.

Structures can show the parent of a compound that is named as a salt. Where two headings read alike, the source gives them in different places. Some results are limits rather than exact numbers.

T1 sequence (P98170 252-350): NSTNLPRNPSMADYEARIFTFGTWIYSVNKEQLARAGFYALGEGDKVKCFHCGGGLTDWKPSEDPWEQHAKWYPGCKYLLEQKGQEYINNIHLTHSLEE

Consider `CC1=C(C)C(=O)N(C[C@H]2CN[C@H](C)CN2CC(=O)N2CC(C)(C)c3nnc(Cc4ccc(F)cc4F)cc32)C1` [Example 50, 1-{[(2R,5R)-1-(2-{3-[(2,4-Difluorophenyl)methyl]-7,7-dimethyl-5H,6H,7H-pyrrolo[3,2-c]pyridazin-5-yl}-2-oxoethyl)-5-methylpiperazin-2-yl]methyl}-3,4-dimethyl-2,5-dihydro-1H-pyrrol-2-one L-lactate], for which the EC50 in assay [1] (setting [3]) was 1.2 nM; in assay [1] (setting [4]), below 1000 nM. Besides, the inhibition at 0.04 µM in assay [2] came to 66%.
Take `C[C@@H]1CN(CC(=O)N2CC(C)(C)c3ncc(Cc4ccc(F)cc4F)cc32)[C@@H](CN2C[C@H](C)N(C)CC2=O)CN1` [Example 98, (5S)-1-{[(2R,5R)-1-(2-{6-[(2,4-Difluorophenyl)methyl]-3,3-dimethyl-1H,2H,3H-pyrrolo[3,2-b]pyridin-1-yl}-2-oxoethyl)-5-methylpiperazin-2-yl]methyl}-4,5-dimethylpiperazin-2-one dihydrochloride]: the EC50 in assay [1] (setting [3]) was 3.5 nM; in assay [1] (setting [4]), below 1000 nM. Further, in assay [2], the inhibition at 0.04 µM came out at 39%.
Turning to `C[C@@H]1CN(CC(=O)N2CC(C)(C)c3cnc(Cc4ccc(F)cc4)cc32)[C@@H](CN2Cc3ccccc3C2=O)CN1` [Example 60, 2-{[(2R,5R)-1-(2-{6-[(4-Fluorophenyl)methyl]-3,3-dimethyl-1H,2H,3H-pyrrolo[3,2-c]pyridin-1-yl}-2-oxoethyl)-5-methylpiperazin-2-yl]methyl}-2,3-dihydro-1H-isoindol-1-one dihydrochloride], the EC50 was 0.29 nM in assay [1] (setting [3]) and below 1000 nM in assay [1] (setting [4]). The inhibition at 0.04 µM in assay [2] was found to be 94%.
For `C[C@@H]1CN(CC(=O)N2CC(C)(C)c3cnc(Cc4ccc(F)cc4F)cc32)[C@@H](CN2CC(C)(C)CC2=O)CN1` [Example 32, 1-{[(2R,5R)-1-(2-{6-[(2,4-Difluorophenyl)methyl]-3,3-dimethyl-1H,2H,3H-pyrrolo[3,2-c]pyridin-1-yl}-2-oxoethyl)-5-methylpiperazin-2-yl]methyl}-4,4-dimethylpyrrolidin-2-one dihydrochloride], the EC50 in assay [1] (setting [3]) is 1.3 nM; in assay [1] (setting [4]) it was below 1000 nM. In addition, in assay [2], the inhibition at 0.04 µM worked out at 71%.
Regarding `C[C@H]1CC(=O)N(C[C@H]2CN[C@H](C)CN2CC(=O)N2CC(C)(C)c3ncc(Cc4ccc(F)cc4F)cc32)C1` [Example 73, (4S)-1-{[(2R,5R)-1-(2-{6-[(2,4-Difluorophenyl)methyl]-3,3-dimethyl-1H,2H,3H-pyrrolo[3,2-b]pyridin-1-yl}-2-oxoethyl)-5-methylpiperazin-2-yl]methyl}-4-methylpyrrolidin-2-one dihydrochloride], the EC50 was 2.5 nM in assay [1] (setting [3]) and below 1000 nM in assay [1] (setting [4]). Moreover, in assay [2], the inhibition at 0.04 µM was 64%.
Consider `CCCC(F)(F)c1cc2c(nn1)C(C)(C)CN2C(=O)CN1C[C@@H](C)NC[C@@H]1CN1Cc2ccc(F)cc2C1=O` [Example 99, 2-{[(2R,5R)-1-{2-[3-(1,1-Difluorobutyl)-7,7-dimethyl-5H,6H,7H-pyrrolo[3,2-c]pyridazin-5-yl]-2-oxoethyl}-5-methylpiperazin-2-yl]methyl}-6-fluoro-2,3-dihydro-1H-isoindol-1-one dihydrochloride], for which the EC50 is 6.6 nM in assay [1] (setting [3]) and below 1000 nM in assay [1] (setting [4]). Also, the inhibition at 0.04 µM in assay [2] came to 65%.
The like results for `C[C@@H]1CN(CC(=O)N2CC(C)(C)c3cnc(Cc4ccc(F)cc4)cc32)[C@@H](CN2C[C@H](C)OCC2=O)CN1` (single isomer, unassigned) [Example 18, (6R or 6S)-4-{[(2R,5R)-1-(2-{6-[(4-Fluorophenyl)methyl]-3,3-dimethyl-1H,2H,3H-pyrrolo[3,2-c]pyridin-1-yl}-2-oxoethyl)-5-methylpiperazin-2-yl]methyl}-6-methylmorpholin-3-one L-lactate] were, in that order, 3.5 nM, below 1000 nM and 70%.
Consider `CCCC(F)(F)c1cc2c(cn1)C(C)(C)CN2C(=O)CN1C[C@@H](C)NC[C@@H]1CN1Cc2ncccc2C1=O` [Example 68, 6-{[(2R,5R)-1-{2-[6-(1,1-Difluorobutyl)-3,3-dimethyl-1H,2H,3H-pyrrolo[3,2-c]pyridin-1-yl]-2-oxoethyl}-5-methylpiperazin-2-yl]methyl}-5H,6H,7H-pyrrolo[3,4-b]pyridin-5-one dihydrochloride], for which the EC50 in assay [1] (setting [3]) is 2.4 nM; in assay [1] (setting [4]), below 1000 nM. Further, the inhibition at 0.04 µM in assay [2] came out at 72%.
Consider `C[C@@H]1CN(CC(=O)N2CC(C)(C)c3ncc(Cc4ccc(F)cc4F)cc32)[C@@H](CN2Cc3cc(C#N)ccc3C2=O)CN1` [Example 106, 2-{[(2R,5R)-1-(2-{6-[(2,4-Difluorophenyl)methyl]-3,3-dimethyl-1H,2H,3H-pyrrolo[3,2-b]pyridin-1-yl}-2-oxoethyl)-5-methylpiperazin-2-yl]methyl}-1-oxo-2,3-dihydro-1H-isoindole-5-carbonitrile dihydrochloride], for which the EC50 in assay [1] (setting [3]) is 2.1 nM; in assay [1] (setting [4]), below 1000 nM. Besides, the inhibition at 0.04 µM in assay [2] was determined as 90%.
Turning to `CCCC(O)c1cnc2c(c1)N(C(=O)CN1C[C@@H](C)NC[C@@H]1CN1Cc3ccccc3C1=O)CC2(C)C` (single isomer, unassigned) [Example 90, dihydrochloride], the figures for the EC50 in assay [1] (setting [5]) and in assay [1] (setting [4]) were 13 nM and below 1000 nM, respectively. Moreover, the inhibition at 0.04 µM in assay [2] is 54%.
`CC1=C(C)C(=O)N(C[C@H]2CN[C@H](C)CN2CC(=O)N2CC(C)(C)c3cnc(Cc4ccc(F)cc4F)cc32)C1` [Example 33, 1-{[(2R,5R)-1-(2-{6-[(2,4-Difluorophenyl)methyl]-3,3-dimethyl-1H,2H,3H-pyrrolo[3,2-c]pyridin-1-yl}-2-oxoethyl)-5-methylpiperazin-2-yl]methyl}-3,4-dimethyl-2,5-dihydro-1H-pyrrol-2-one dihydrochloride]: the EC50 is 1.1 nM in assay [1] (setting [3]) and below 1000 nM in assay [1] (setting [4]). Also, the inhibition at 0.04 µM in assay [2] is 81%.
On to `CC1=C(C)C(=O)N(C[C@H]2CN[C@H](C)CN2CC(=O)N2CC(C)(C)c3nnc(Cc4ccc(F)cc4)cc32)C1` [Example 51, 1-{[(2R,5R)-1-(2-{3-[(4-Fluorophenyl)methyl]-7,7-dimethyl-5H,6H,7H-pyrrolo[3,2-c]pyridazin-5-yl}-2-oxoethyl)-5-methylpiperazin-2-yl]methyl}-3,4-dimethyl-2,5-dihydro-1H-pyrrol-2-one L-lactate], for which the figures for the EC50 in assay [1] (setting [3]) and in assay [1] (setting [4]) were 4.9 nM and below 1000 nM, respectively. For the same molecule, the inhibition at 0.04 µM in assay [2] amounted to 48%.
On to `C[C@@H]1CN(CC(=O)N2CC(C)(C)c3nnc(Cc4ccc(F)cc4F)cc32)[C@@H](CN2Cc3cc(O)ccc3C2=O)CN1` [Example 108, 2-{[(2R,5R)-1-(2-{3-[(2,4-Difluorophenyl)methyl]-7,7-dimethyl-5H,6H,7H-pyrrolo[3,2-c]pyridazin-5-yl}-2-oxoethyl)-5-methylpiperazin-2-yl]methyl}-5-hydroxy-2,3-dihydro-1H-isoindol-1-one dihydrochloride], for which the EC50 was 11 nM in assay [1] (setting [3]) and below 1000 nM in assay [1] (setting [4]). Further, the inhibition at 0.04 µM in assay [2] came to 88%.
Take `CCC1CN(C[C@H]2CN[C@H](C)CN2CC(=O)N2CC(C)(C)c3ncc([C@@H](O)c4ccc(F)cc4)cc32)C(=O)CO1` (single isomer, unassigned) [Example 110, (R or S)-6-ethyl-4-{[(2R,5R)-1-(2-{6-[(S)-(4-Fluorophenyl)(hydroxy)methyl]-3,3-dimethyl-1H,2H,3H-pyrrolo[3,2-b]pyridin-1-yl}-2-oxoethyl)-5-methylpiperazin-2-yl]methyl}morpholin-3-one dihydrochloride]: the EC50 was 290 nM in assay [1] (setting [5]) and below 1000 nM in assay [1] (Homo sapiens, EVSA-T, read-out: EC50 in EVSA-T cell line assays). Moreover, the inhibition at 0.04 µM in assay [2] came out at 48%.
`C[C@@H]1CN(CC(=O)N2CC(C)(C)c3ncc(Cc4ccc(F)cc4F)cc32)[C@@H](CN2Cc3ccc(C#N)cc3C2=O)CN1` [Example 112, 2-{[(2R,5R)-1-(2-{6-[(2,4-Difluorophenyl)methyl]-3,3-dimethyl-1H,2H,3H-pyrrolo[3,2-b]pyridin-1-yl}-2-oxoethyl)-5-methylpiperazin-2-yl]methyl}-3-oxo-2,3-dihydro-1H-isoindole-5-carbonitrile dihydrochloride]: the EC50 is 2.7 nM in assay [1] (setting [3]) and below 1000 nM in assay [1] (setting [4]). The inhibition at 0.04 µM in assay [2] was 85%.
In the same order, the values of `C[C@@H]1CN(CC(=O)N2CC(C)(C)c3nnc(Cc4ccc(F)cc4F)cc32)[C@@H](CN2Cc3cccc(F)c3C2=O)CN1` [Example 113, 2-{[(2R,5R)-1-(2-{3-[(2,4-Difluorophenyl)methyl]-7,7-dimethyl-5H,6H,7H-pyrrolo[3,2-c]pyridazin-5-yl}-2-oxoethyl)-5-methylpiperazin-2-yl]methyl}-7-fluoro-2,3-dihydro-1H-issoindol-1-one dihydrochloride] are 0.62 nM, below 1000 nM and 69%.
For `CCCC(F)(F)c1cc2c(cn1)C(C)(C)CN2C(=O)CN1C[C@@H](C)NC[C@@H]1CN1Cc2ccncc2C1=O` [Example 78, 2-{[(2R,5R)-1-{2-[6-(1,1-Difluorobutyl)-3,3-dimethyl-1H,2H,3H-pyrrolo[3,2-c]pyridin-1-yl]-2-oxoethyl}-5-methylpiperazin-2-yl]methyl}-1H,2H,3H-pyrrolo[3,4-c]pyridin-3-one dihydrochloride], the figures for the EC50 in assay [1] (setting [3]) and in assay [1] (setting [4]) were 3.4 nM and below 1000 nM, respectively. In assay [2], the inhibition at 0.04 µM worked out at 64%.
As for `C[C@@H]1CN(CC(=O)N2CC(C)(C)c3ncc([C@@H](O)c4ccc(F)cc4)cc32)[C@@H](CN2Cc3ccccc3C2=O)CN1` [Example 96, 2-{[(2R,5R)-1-(2-{6-[(S)-(4-Fluorophenyl)(hydroxy)methyl]-3,3-dimethyl-1H,2H,3H-pyrrolo[3,2-b]pyridin-1-yl}-2-oxoethyl)-5-methylpiperazin-2-yl]methyl}-2,3-dihydro-1H-isoindol-1-one], the EC50 in assay [1] (setting [3]) is 31 nM; in assay [1] (setting [4]), below 1000 nM. Besides, in assay [2], the inhibition at 0.04 µM was 62%.
